The source of these data is patent US20130184251A1, “HETEROAROMATIC AND AROMATIC PIPERAZINYL AZETIDINYL AMIDES AS MONOACYLGLYCEROL LIPASE INHIBITORS” (Janssen Pharmaceutica, NV, priority 2009, published 2013).

One may read the ED50 as the dose at which the effect has come halfway, by size or by number of responders.

Where two headings read alike, the source gives them in different places.

One assay deals with rats. The assay is described as follows: CFA-induced paw radiant heat hypersensitivity. The format is in vivo, rat. Conditions: HCl salt in 20% HPβCD, treatment time 30 min. On the procedure: Each rat was placed in a test chamber on a thermally controlled glass surface and allowed to acclimate for approximately 10 min. A radiant thermal stimulus (beam of light) was then focused through the glass onto the plantar surface of the hind paw. The thermal stimulus was automatically shut off by a photoelectric relay when the paw was moved or when the cut-off time was reached (20 sec). An initial (baseline) response latency to the thermal stimulus was recorded for each animal prior to the injection of CFA. 24 h following intraplantar CFA injection, the response latency to the thermal stimulus was then re-evaluated and compared to the animal's baseline response time. […] Immediately following the post-CFA latency assessment, test compound or vehicle (usually solutol, hydroxypropyl methylcellulose, hydroxypropyl beta-cyclodextrin or PEG-400) was administered i.p. or p.o. to rats. Post-compound treatment withdrawal latencies were assessed at fixed time intervals, typically 30, 60 and 120 minutes. The percent reversal of hypersensitivity is calculated according to the following formula: % reversal=(post dose latency-predoselatency)/(baseline (pre CFA) latency-predose latency)×100.
Compound #12 (as its corresponding HCl salt) was administered in a solution of 20% HPβCD, at a dose of 30 mg/kg, i.p. and a treatment time of 30 min.

A further assay has as its system HeLa cells. The assay is described as follows: 2-AG accumulation assay using HeLa cells. The format is cell-based. Conditions: for Emax at 10 µM: Homo sapiens.
Assay [1] deals with Male Sprague Dawley rats. The assay is described as follows: Visceral hyperalgesia model (colorectal distension, zymosan colitis). The format is in vivo. Conditions: 30 mg/kg, s.c.; 20 min after dosing; vehicle-treated rats 239.6±28.9% of control. On the procedure: This protocol uses barostat-controlled, isobaric colorectal distensions (CRD) in rats to evaluate the potency and efficacy of test compounds in treating visceral hyperalgesia. Male Sprague Dawley rats, weighing 275-350 g, (Charles River Labs) were housed 2-4/cage in a temperature and humidity controlled room with a 12 h/12 h light/dark cycle and ad libitum access to food and water. One day after release from quarantine, rats were acclimated to progressively longer (30 min and, 4 h later, 45 min) periods of simple restraint in plexiglass devices (G-3, rat ECU; Braintree Scientific; Braintree Mass.). The rats were returned to their home cage overnight. […] The balloon pressure, which represents intracolonic pressure, was continuously recorded. […]
The following morning, colitis was induced by the intracolonic instillation of a 1.5-mL bolus of 2.5% (w/v) zymosan A (from Saccharomyces cerevisiae; Sigma Chemical Co., St. Louis) in 30% ethanol under light 70% CO2: 30% O2 anesthesia. […] The identical CRD stimuli were applied, and manometric VMRs were recorded and analyzed as described for the control phase of the experiment. […] CRD stimuli at 45 mmHg elicited peak responses in the control (pre-zymosan) condition; therefore, the responses of each rat were calculated as a percent of the manometric VMR at that pressure, recorded the day before induction of colitis; thus, each rat served as its own control. […]

In assay [2] the test system is Male Sprague Dawley rats. The experiment in a line: Chronic constriction injury (CCI)-induced model of neuropathic pain, acetone-induced hypersensitivity. Format: in vivo. Conditions: HCl salt, 30 mg/kg oral dosing in 20% HPbCD. The source says:
Male Sprague Dawley rats (225-450 g; n=5-8/treatment) were used to evaluate the ability of selected compounds of the Formula (I) to reverse CCI-induced cold hypersensitivity. Four loose ligatures of 4-0 chromic gut were surgically placed around the left sciatic nerve under inhalation anesthesia as described by Bennett et al (Bennett G J, Xie Y K. Pain 1988, 33(1): 87-107). Fourteen to 35 days following CCI surgery, subjects were placed in elevated observation chambers containing wire mesh floors, and five applications of acetone (0.05 mL/application separated by approximately 5 minutes) were spritzed onto the plantar surface of the paw using a multidose syringe. An abrupt withdrawal or lifting of the paw was considered a positive response. The number of positive responses was recorded for each rat over the five trials. Following baseline withdrawal determinations, compounds of formula (I) were administered in an appropriate vehicle, such as hydroxypropyl-β-cyclodextrin (HP β CD), methylcellulose, Methocel, 10% Solutol, or H2O, or the like, by the appropriate route, i.p. or p.o. The number of withdrawals were re-determined 1 to 4 h after compound administration. Results are presented as a percent inhibition of shakes, which was calculated for each subject as [1-(test compound withdrawals/pre-test withdrawals)]×100 and then averaged by treatment.

Where [3] appears, read: HeLa cell homogenate, 2-AG accumulation relative to MAFP, compound @10 μM (second of two columns with the same head), read-out: Ex. 5 % MAFP @10 μM (second column).
[4] abbreviates: HeLa cell homogenate, 2-AG accumulation relative to MAFP, compound @10 μM as printed (first of two columns with the same head), read-out: Ex. 5 % MAFP @10 μM (first column).

`O=C(c1ccc(-c2ccccc2)cc1)N1CC(N2CCN(c3ncccn3)CC2)C1` [Compound #12, Biphenyl-4-yl-[3-(4-pyrimidin-2-yl-piperazin-1-yl)-azetidin-1-yl]-methanone]: the reversal of hypersensitivity in the assay with rats (30 mg/kg, i.p.) was 90.3%. For the same compound, in the assay with rats (Rattus norvegicus, ip, 0.5 h), the ED50 was found to be 0.9 mg/kg. Besides, the figures for the Emax at 10 µM in the assay with HeLa cells (setting [3]) and with HeLa cells (setting [4]) were 108% and 63.1%, respectively. Moreover, the “hyperalgesic response (manometric VMR) to 45 mmHg CRD” value with Male Sprague Dawley rats [1] is reported as 103.8±22.1 % of control. Also, the “Percent Inhibition (of shakes)” value worked out at 57.1% with Male Sprague Dawley rats [2] (pretreatment time 1 hr), 74.3% with Male Sprague Dawley rats [2] (pretreatment time 2 hr), 80.0% with Male Sprague Dawley rats [2] (pretreatment time 3 hr) and 48.6% in the assay on Male Sprague Dawley rats [2] (pretreatment time 4 hr).
On to `O=C(c1ccc(-c2ccc(F)cc2)cc1)N1CC(N2CCN(c3ncccn3)CC2)C1` [compound 9, 2-(4-{1-[(4′-Fluorobiphenyl-4-yl)carbonyl]azetidin-3-yl}piperazin-1-yl)pyrimidine], for which the Emax at 10 µM in the assay on HeLa cells (setting [3]) stood at 81%.
Take `O=C(c1ccc(C2CCCCC2)cc1)N1CC(N2CCN(c3noc4ccccc34)CC2)C1` [compound 33, 3-(4-{1-[(4-Cyclohexylphenyl)carbonyl]azetidin-3-yl}piperazin-1-yl)-1,2-benzisoxazole]: the Emax at 10 µM with HeLa cells (setting [3]) was 33%; with HeLa cells (setting [4]) it was 17.5%.
`COc1ccc(-c2ccc(C(=O)N3CC(N4CCN(c5ncccn5)CC4)C3)cc2)cc1` [compound 5, 2-(4-{1-[(4′-Methoxybiphenyl-4-yl)carbonyl]azetidin-3-yl}piperazin-1-yl)pyrimidine]: the Emax at 10 µM in the assay on HeLa cells (setting [3]) amounted to 98.8%.
With `O=C(c1ccc(-n2cccc2)cc1)N1CC(N2CCN(c3ncccn3)CC2)C1` [compound 25, 2-[4-(1-{[4-(1H-Pyrrol-1-yl)phenyl]carbonyl}azetidin-3-yl)piperazin-1-yl]pyrimidine], the Emax at 10 µM with HeLa cells (setting [3]) amounted to 87.7%.
On to `Cc1c(C(=O)N2CC(N3CCN(c4ccccn4)CC3)C2)nn(-c2ccc(Cl)cc2Cl)c1-c1ccc(Cl)cc1` [compound 39, 1-(1-{[5-(4-Chlorophenyl)-1-(2,4-dichlorophenyl)-4-methyl-1H-pyrazol-3-yl]carbonyl}azetidin-3-yl)-4-pyridin-2-ylpiperazine], for which the Emax at 10 µM in the assay on HeLa cells (HeLa, read-out: Ex. 5 % MAFP @10 μM) was 87.6%.
Take `O=C(c1ccc(Cc2ccccc2)cc1)N1CC(N2CCN(c3ccccn3)CC2)C1` [compound 30, 1-{1-[(4-Benzylphenyl)carbonyl]azetidin-3-yl}-4-pyridin-2-ylpiperazine]: the values for the Emax at 10 µM in the assay with HeLa cells (setting [3]) and in the assay with HeLa cells (setting [4]) were 37.3% and 34.7%, respectively.
For `COc1ccc(-c2nc3cccc(C(=O)N4CC(N5CCN(c6ccccn6)CC5)C4)c3o2)cc1` [Compound #210], the “Ex. 5 % MAFP @10 μM” value with HeLa cells (10 μM compound, 2-AG relative to MAFP, HeLa homogenate) was found to be 79.5 % MAFP.
As for `O=C1c2ccccc2-c2ccc(C(=O)N3CC(N4CCN(c5ccccn5)CC4)C3)cc21` [compound 59, 2-{[3-(4-Pyridin-2-ylpiperazin-1-yl)azetidin-1-yl]carbonyl}-9H-fluoren-9-one], the figures for the Emax at 10 µM with HeLa cells (setting [3]) and in the assay with HeLa cells (setting [4]) were 39.7% and 10.2%, respectively.
With `O=C(c1ccc(-c2ccccc2)cc1)N1CC(N2CCN(c3nccs3)CC2)C1` [compound 36, 1-[1-(Biphenyl-4-ylcarbonyl)azetidin-3-yl]-4-(1,3-thiazol-2-yl)piperazine], the Emax at 10 µM in the assay on HeLa cells (setting [3]) is 91.3%.
As for `CC1(C)CCC(C)(C)c2cc(CCC(=O)N3CC(N4CCN(c5ccccn5)CC4)C3)ccc21` [compound 29, 1-Pyridin-2-yl-4-{1-[3-(5,5,8,8-tetramethyl-5,6,7,8-tetrahydronaphth-2-yl)propanoyl]azetidin-3-yl}piperazine], the Emax at 10 µM in the assay on HeLa cells (setting [3]) was determined as 76.5%.
As for `CC(C)(C)OC(=O)N1CCC(c2ccc(C(=O)N3CC(N4CCN(c5ccccn5)CC4)C3)cc2)CC1` [compound 122, tert-Butyl 4-(4-{[3-(4-pyridin-2-ylpiperazin-1-yl)azetidin-1-yl]carbonyl}phenyl)piperidine-1-carboxylate], the Emax at 10 µM in the assay with HeLa cells (setting [3]) is 67.8%.
Still for that read-out and setting: with `O=C(c1ccc(Cc2ccccc2)cc1)N1CC(N2CCN(c3ncccn3)CC2)C1` [compound 24, 2-(4-{1-[(4-Benzylphenyl)carbonyl]azetidin-3-yl}piperazin-1-yl)pyrimidine] the figure was 81.9%; with `O=C(c1ccc(-c2cccc(C(F)(F)F)c2)cc1)N1CC(N2CCN(c3ncccn3)CC2)C1` [compound 4, 2-[4-(1-{[3′-(Trifluoromethyl)biphenyl-4-yl]carbonyl}azetidin-3-yl)piperazin-1-yl]pyrimidine], 112%.
